Calls of active or inactive are those of the source.
Experiments:
[1] = target: Cytochrome P450 3A4 (Homo sapiens, UniProt P08684); conditions: Potency;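 also: confirmatory qHTS run detecting inhibitors and substrates of CYP3A4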
[2] = target: T1, Corticotropin-releasing factor receptor 2/Corticotropin-releasing factor-binding protein (Homo sapiens, UniProt P24387+Q13324); assay: Dose Response confirmation of uHTS hits for small molecule antagonists of the CRF-binding protein and CRF-R2 receptor complex.; format: functional; conditions: read-out: IC50_Mean
T1 sequence (Q13324 whole entry): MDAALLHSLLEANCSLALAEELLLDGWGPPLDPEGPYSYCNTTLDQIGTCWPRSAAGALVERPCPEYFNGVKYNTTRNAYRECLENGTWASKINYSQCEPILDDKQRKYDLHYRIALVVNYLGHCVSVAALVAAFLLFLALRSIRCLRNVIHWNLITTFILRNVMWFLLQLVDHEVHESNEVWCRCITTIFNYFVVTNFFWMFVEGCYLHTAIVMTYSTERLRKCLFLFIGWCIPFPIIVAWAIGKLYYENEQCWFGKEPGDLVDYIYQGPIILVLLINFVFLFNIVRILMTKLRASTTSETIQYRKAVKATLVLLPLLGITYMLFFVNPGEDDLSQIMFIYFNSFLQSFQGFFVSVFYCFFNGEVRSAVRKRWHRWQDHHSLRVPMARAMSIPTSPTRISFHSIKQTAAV
T1 sequence (P24387 whole entry): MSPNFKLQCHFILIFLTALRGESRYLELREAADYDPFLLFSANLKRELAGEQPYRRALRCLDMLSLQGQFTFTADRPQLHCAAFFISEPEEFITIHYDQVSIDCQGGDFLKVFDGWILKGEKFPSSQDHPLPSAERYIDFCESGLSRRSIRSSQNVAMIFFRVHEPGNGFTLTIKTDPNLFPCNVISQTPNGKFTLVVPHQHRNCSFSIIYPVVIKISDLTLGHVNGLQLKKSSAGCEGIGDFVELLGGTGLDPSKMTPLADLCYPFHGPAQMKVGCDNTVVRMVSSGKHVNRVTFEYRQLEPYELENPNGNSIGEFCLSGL

[3] = target: T1, Corticotropin-releasing factor receptor 2/Corticotropin-releasing factor-binding protein; assay: activators of CRF receptor 2 with binding protein – uHTS hits, confirmation (AID 602473); format: functional; conditions: read-out: EC50_Mean
[4] = target: Induced myeloid leukemia cell differentiation protein Mcl-1 (Homo sapiens, UniProt Q07820); format: functional
Sequence of Induced myeloid leukemia cell differentiation protein Mcl-1 (Q07820 whole entry): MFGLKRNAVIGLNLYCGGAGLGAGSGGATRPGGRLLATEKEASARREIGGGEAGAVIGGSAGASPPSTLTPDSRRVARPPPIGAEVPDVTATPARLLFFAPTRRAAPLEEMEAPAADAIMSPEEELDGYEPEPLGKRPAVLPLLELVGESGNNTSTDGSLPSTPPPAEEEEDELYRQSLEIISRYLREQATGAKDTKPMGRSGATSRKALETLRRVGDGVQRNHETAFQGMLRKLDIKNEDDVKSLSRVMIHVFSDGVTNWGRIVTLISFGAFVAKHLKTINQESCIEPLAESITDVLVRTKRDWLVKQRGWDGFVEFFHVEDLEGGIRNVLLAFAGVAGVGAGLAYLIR

[5] = target: T2, Leucine aminopeptidase (Plasmodium falciparum 3D7, UniProt Q8IL11); assay: P. falciparum M17LAP inhibitors, primary screen, biochemical, fluorogenic H-Leu-NHMec substrate, 1536-well (AID 1619); format: functional
T2 sequence (Q8IL11 whole entry): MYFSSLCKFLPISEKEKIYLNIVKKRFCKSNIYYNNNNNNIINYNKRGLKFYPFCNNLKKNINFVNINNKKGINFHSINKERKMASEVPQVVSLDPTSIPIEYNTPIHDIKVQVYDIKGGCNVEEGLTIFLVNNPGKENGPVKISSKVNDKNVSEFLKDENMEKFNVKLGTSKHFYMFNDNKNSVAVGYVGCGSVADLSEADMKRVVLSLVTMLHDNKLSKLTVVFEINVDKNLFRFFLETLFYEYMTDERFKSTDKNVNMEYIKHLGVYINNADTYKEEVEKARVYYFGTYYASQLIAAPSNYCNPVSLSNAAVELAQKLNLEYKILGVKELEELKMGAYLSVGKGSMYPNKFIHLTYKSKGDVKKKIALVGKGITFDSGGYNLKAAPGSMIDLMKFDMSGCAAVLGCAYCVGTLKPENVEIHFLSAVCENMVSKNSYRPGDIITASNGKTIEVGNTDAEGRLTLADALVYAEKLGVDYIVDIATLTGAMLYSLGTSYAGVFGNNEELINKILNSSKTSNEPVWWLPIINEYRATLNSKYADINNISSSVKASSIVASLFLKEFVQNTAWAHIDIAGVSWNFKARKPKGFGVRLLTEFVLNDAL

[6] = target: T3, Replicative DNA helicase DnaB (Mycobacterium tuberculosis, UniProt P9WMR3); assay: DnaB intein splicing inhibitors, dose response, biochemical, cell-free fluorescence (AID 449749); format: functional
T3 sequence (P9WMR3 whole entry): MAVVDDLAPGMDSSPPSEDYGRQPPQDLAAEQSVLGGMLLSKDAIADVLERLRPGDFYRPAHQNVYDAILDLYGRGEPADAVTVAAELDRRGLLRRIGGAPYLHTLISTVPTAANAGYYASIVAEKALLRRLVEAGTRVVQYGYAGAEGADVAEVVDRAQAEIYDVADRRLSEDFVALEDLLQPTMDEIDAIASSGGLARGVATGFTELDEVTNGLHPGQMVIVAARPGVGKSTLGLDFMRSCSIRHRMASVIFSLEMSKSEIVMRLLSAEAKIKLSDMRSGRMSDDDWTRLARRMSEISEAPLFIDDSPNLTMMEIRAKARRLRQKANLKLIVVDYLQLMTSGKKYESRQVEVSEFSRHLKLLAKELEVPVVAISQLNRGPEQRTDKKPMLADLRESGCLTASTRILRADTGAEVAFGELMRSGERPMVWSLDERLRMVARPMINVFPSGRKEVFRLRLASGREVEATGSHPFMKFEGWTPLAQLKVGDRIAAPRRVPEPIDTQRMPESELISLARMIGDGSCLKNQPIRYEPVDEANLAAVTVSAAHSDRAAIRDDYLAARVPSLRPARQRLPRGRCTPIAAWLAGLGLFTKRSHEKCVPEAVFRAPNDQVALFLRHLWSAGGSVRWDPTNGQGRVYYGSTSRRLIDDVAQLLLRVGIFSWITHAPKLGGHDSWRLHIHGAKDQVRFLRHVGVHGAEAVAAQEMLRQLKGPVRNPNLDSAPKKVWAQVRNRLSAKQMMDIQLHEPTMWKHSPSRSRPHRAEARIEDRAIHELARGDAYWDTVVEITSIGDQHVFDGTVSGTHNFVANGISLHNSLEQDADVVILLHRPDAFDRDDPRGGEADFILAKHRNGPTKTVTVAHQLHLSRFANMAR

[7] = target: T4, Protein RecA (Mycobacterium tuberculosis, UniProt P9WHJ3); assay: Fluorescence Cell-Free Homogeneous Dose Retest to Identify Inhibitors of RecA-Intein Splicing Activity. [Related pubchem assays (depositor defined):AID2097, AID2223, AID489010, AID492950]; format: functional
T4 sequence (P9WHJ3 whole entry): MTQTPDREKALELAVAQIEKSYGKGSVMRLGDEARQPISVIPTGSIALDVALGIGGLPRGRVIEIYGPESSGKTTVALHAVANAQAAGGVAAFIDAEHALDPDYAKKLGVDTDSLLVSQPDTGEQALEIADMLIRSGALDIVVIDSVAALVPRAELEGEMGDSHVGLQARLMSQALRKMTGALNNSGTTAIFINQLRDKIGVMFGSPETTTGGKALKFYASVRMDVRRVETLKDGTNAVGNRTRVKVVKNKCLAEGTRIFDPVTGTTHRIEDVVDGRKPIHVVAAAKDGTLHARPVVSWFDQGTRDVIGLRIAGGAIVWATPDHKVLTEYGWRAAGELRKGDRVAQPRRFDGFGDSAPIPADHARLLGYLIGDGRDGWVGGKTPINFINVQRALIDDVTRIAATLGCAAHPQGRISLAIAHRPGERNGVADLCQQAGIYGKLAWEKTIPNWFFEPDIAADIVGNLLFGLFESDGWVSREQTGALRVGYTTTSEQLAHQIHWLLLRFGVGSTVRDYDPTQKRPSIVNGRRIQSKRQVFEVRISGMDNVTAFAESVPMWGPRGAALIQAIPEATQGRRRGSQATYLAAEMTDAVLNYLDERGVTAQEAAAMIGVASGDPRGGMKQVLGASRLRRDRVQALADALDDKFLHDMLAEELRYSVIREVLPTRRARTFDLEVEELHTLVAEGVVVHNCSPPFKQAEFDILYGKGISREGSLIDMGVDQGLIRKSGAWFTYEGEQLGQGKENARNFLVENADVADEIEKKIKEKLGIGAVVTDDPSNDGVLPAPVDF

[8] = target: FAD-linked sulfhydryl oxidase ALR (Homo sapiens, UniProt P55789); assay: ALR-catalysed DTT oxidation blockers – biochemical, H2O2 detection, luminescence, cherry-pick, dose response (AID 493248)
Sequence of FAD-linked sulfhydryl oxidase ALR (P55789 whole entry): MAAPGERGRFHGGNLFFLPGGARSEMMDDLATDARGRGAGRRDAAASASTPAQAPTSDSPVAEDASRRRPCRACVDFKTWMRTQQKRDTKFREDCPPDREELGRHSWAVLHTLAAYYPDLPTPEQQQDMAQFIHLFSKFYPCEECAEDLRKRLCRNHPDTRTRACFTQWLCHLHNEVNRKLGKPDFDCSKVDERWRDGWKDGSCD

[9] = test system: P388/ADR; assay: cells; format: functional; conditions: Mus musculus
[10] = test system: SN12K1; assay: cells; format: functional; conditions: Homo sapiens
[11] = test system: P388; assay: cells; format: functional; conditions: Mus musculus
[12] = blockers of HIV-1 ZM109 envelope-driven cell-cell fusion – HeLa effector, CEM target cells, luciferase, cherry-pick, dose response (AID 652058); format: functional, cell-based;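 also: luciferase signal from HIV-1 Env mediated cell-cell fusion of effector and target cells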

Sequence of Cytochrome P450 3A4 (P08684 whole entry): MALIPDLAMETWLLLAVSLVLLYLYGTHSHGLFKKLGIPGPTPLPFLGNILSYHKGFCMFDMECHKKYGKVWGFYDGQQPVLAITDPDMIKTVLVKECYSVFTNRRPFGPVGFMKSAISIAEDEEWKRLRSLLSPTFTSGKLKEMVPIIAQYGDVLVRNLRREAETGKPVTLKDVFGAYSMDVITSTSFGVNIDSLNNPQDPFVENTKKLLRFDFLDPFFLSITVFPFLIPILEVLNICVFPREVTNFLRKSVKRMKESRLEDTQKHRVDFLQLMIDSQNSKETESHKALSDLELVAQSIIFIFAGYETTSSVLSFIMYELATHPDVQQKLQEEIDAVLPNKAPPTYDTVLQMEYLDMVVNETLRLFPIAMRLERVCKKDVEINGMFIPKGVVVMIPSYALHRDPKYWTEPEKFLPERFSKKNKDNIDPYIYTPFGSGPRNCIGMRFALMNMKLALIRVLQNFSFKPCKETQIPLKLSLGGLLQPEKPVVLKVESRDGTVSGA

Row | SMILES | GI50 [9] | GI50 [10] | GI50 [11] | further results
1 | CC(=O)N1CC=CC1(C)C(=O)NCC1CC1 (centres undefined) |  |  |  | AC50 [1]: 31.6 µM (inconclusive)
2 | Cn1ccnc1SCc1cn2ccccc2n1 |  |  |  | IC50 [2]: > 47.1 µM (inactive); EC50 [3]: > 53 µM (inactive)
3 | Cc1ccc(C(=O)COC(=O)CNC(=O)c2ccc(N3C(=O)c4ccccc4C3=O)cc2)cc1C |  |  |  | IC50 [4]: 2.13 µM (not active)
4 | Cc1ccc(-c2[nH]nc3c2C(c2ccsc2)C(C#N)=C(N)O3)cc1 (centres undefined) |  |  |  | IC50 [5]: 11.3 µM (active); AC50 [6]: 3.26 µM (active); EC50 [7]: 1.2 µM (active)
5 | Cc1c(C)c(C)c(C(=O)CCc2cccc(NC(=O)CCC(=O)O)c2)c(C)c1C |  |  |  | AC50 [8]: 1.72 µM (active)
6 | CNC(=O)OCc1nc(SC)n(C)c1CO | > 100 µM (inactive) | > 100 µM (inactive) | > 100 µM (inactive) | 
7 | Cc1c(-c2cc3n(n2)C(c2cccs2)C(C#N)=C(c2ccccc2)N3)c(=O)n(-c2ccccc2)n1C (centres undefined) | 76.4 µM (inactive) | 86.5 µM (inactive) | 42.1 µM (inactive) | 
8 | CC1=NN(C(=O)c2ccccc2)C(=O)C1/N=N/c1ccccc1C(=O)O (centres undefined) | 5.55 µM (inactive) | 3.24 µM (inactive) | 9.51 µM (inactive) | 
9 | Cc1c2cc[n+](C)cc2c(COC2OC(CO)C(O)C2O)c2c3ccccc3n(C)c12 (centres undefined) | > 100 µM (inactive) | 58.2 µM (inactive) | 2.69 µM (inactive) | 
10 | CN(C)CCNC(=O)c1cccc2c1Nc1ccccc1S2 | 2.84 µM (inactive) | 8.18 µM (inactive) | 2.25 µM (inactive) | 
11 | C[C@@H]1CN([C@H](C)CO)C(=O)c2cccc(NC(=O)c3cnccn3)c2O[C@H]1CN(C)Cc1ccccc1 |  |  |  | AC50 [12]: 36.6 µM (active)
12 | COc1cccc2c1C(=O)c1c(O)c3c(c(O)c1C2=O)C[C@@](O)(C(=O)CO)C[C@@H]3OC1CC(N2CCOCC2C#N)C(O)C(C)O1 (some centres undefined) |  | 1.13e-05 µM (active) | 2.9e-06 µM (active) | 
13 | Cc1c2cc[n+]([O-])cc2c(C)c2c1[nH]c1ccccc12 | 4.45 µM (inactive) | 3.38 µM (inactive) | 0.753 µM (active) | 
14 | O=C(CSc1nnc(O)nc1O)N/N=C/c1ccccc1 |  |  |  | IC50 [5]: 21.1 µM (active)
15 | OCC1OC(n2cnc3c2NC=NC[C@H]3O)CC1O (some centres undefined) | 291 µM (inactive) | 405 µM (inactive) | 366 µM (inactive) | 
16 | NC(=O)/N=N/C(N)=O [E927A] |  |  |  | AC50 [1]: 31.6 µM (inconclusive)
